In patent publication US11534457B2, “Use of dextran sulfate” (priority 2017, dated 2022):

System: Mouse cortical neurons (Lonza)
Assay: Gene expression array and pathway analysis, cortical neurons
Type: cell-based
Conditions: 0.01 mg/ml, 48 h
Method: For each cell line, n=8×25 cm^2 culture flasks were set up. Two flasks were harvested for each cell type on the day of treatment (24 hours after seeding). This represents the Day0 time point. From the remaining flasks, three flasks were treated with Control Medium and three were treated with Culture Medium (CM) containing LMW-DS to give a final concentration of 0.01 mg/ml. Cells from the treated flasks were collected after 48 hours. Therefore the collected data represent (a) untreated cells (Day0 Controls and Day2 Controls) and (b) cells treated with LMW-DS for 48 hours (Day2 LMW-DS treated).
25 cm^2 flasks were coated by adding 2 ml per flask of a solution of 50 μg/ml poly-d-lysine in Hank's balanced salt solution (HBSS) and incubating overnight at 37° C. in the dark. Flasks were washed with cell culture water and air-dried for 30 min in the dark. Flasks were coated by adding 1 ml per flask of a solution of 25 μg/ml laminin in phosphate-buffered saline (PBS) and incubating for 2 hour at 37° C. in the dark. The laminin flasks were washed with PBS three times before plating cells.
Medium was prepared by adding 10 ml B-27 Serum-Free Supplement and 2.5 ml GlutaMAX™-1 Supplement to 500 ml of Neurobasal medium. The medium was pre-warmed to 37° C. Cells from 12 vials were thawed sequentially in a 37° C. water bath for no longer than 2 min and gently transferred into a 15 ml tube. 9 ml of medium was gently added drop-wise to each. The cell suspension was mixed by inverting the tubes carefully twice.
The cells were centrifuged for 5 minutes at 200×g. Supernatant was removed (to the last 0.5 ml) and cells were gently resuspended by trituration. The cells from the 12 vials were mixed and distributed equally into the previously coated 25 cm^2 flasks (n=8). Cells were incubated at 37° C. with 5% CO2 for 24 hours.
LMW-DS was provided at a stock concentration of 20 mg/ml and was kept in a temperature monitored refrigerator at 4° C. A fresh […]LMW-DS stock (1.0 mg/ml) was prepared in sterile DMEM-F12. The concentrated drug stock was sterile filtered and added to the respective culture media (19.6 ml CM and 0.4 ml LMW-DS stock solution). The Control was made using 19.6 ml CM and 0.4 ml of DMEM-F12. LMW-DS and CM were added to the respective flasks (5 ml each) to reach the 0.01 mg/ml concentration of LMW-DS in each dish with a total of 10 ml CM each.
CM was aspirated into a clean and labelled 15 ml Falcon tube. The flasks (without culture medium) were placed into the −80° C. freezer for 30 minutes. The CM in the Falcon tubes were spun at 3000×g for 5 minutes. Supernatant was removed and the small pellet was re-suspended in 2.5 ml Trizol:Water (4:1) solution at room temperature (RT, […]).
Two aliquots of 1 ml lysate was removed from each sample and 200 μl of chloroform was added to each (0.2 ml of chloroform per 1 ml of TRIzol Reagent used during the cell lysis step) and the tube was shaken vigorously. Samples were stored at RT for 2-3 minutes and subsequently centrifuged at 12,000×g for 15 minutes at 4° C.
The expression data were downloaded into separate files for each cell line. The ‘Background corrected’ expression is the data from the “gProcessedSignal” of the arrays that is the result of the background signal extracted from the actual signal of the relevant probe. This is the most often used variable in array analysis. The background corrected signal was log 2 transformed for all samples for statistical analysis. To reduce the false discovery rate in the samples, the signals that were below ‘expression level’ were removed. The ‘below expression’ level was set at 5 for the log 2 transformed expression values.
Based on the expression pattern of the Control probes on each array it was decided to carry out Median Centering for all arrays before analysis to reduce the variability of the results. […]

low molecular weight dextran sulfate [LMW-DS]
MMP-related genes differentially expressed: none
cellular attachment from expression patterns (neurons): significant inhibition of cellular attachment
downstream effector molecules of GDF7: activated
glutamate production: dis not alter
number of genes differentially expressed, D0 control to the D2 LMW-DS treated samples (second statement): 247 genes
number of genes differentially expressed, D0 control vs D2 LMW-DS treated: 609 genes
number of genes: abolished nutrient effect / no effect: 572
number of genes: abolished nutrient effect / significant downregulation: 7
number of genes: abolished nutrient effect / significant upregulation: 33
number of genes: abolished nutrient effect / total: 612
number of genes: enhanced response to nutrients / significant downregulation: 158
number of genes: enhanced response to nutrients / significant upregulation: 43
number of genes: enhanced response to nutrients / total: 612
number of genes: new effect induced by LMW-DS / no effect: 19
number of genes: new effect induced by LMW-DS / significant downregulation: 22
number of genes: new effect induced by LMW-DS / significant upregulation: 7
number of genes: new effect induced by LMW-DS / total: 48
number of genes: not different from control / significant downregulation: 95
number of genes: not different from control / significant upregulation: 221
number of genes: not different from control / total: 316
number of genes: total / no effect: 591
number of genes: total / significant downregulation: 282
number of genes: total / significant upregulation: 304
number of genes: total / total: 1177
oxidative-stress effects: amyloid-β and Lewy body pathology, mitochondrial dysfunction: able to prevent and reverse most of these deleterious effects
